Test results from patent US8987502B2, “Oleanolic acid amidate derivatives, preparation methods and uses thereof” (Hangzhou Bensheng Pharmaceutical Co., Ltd., priority 2011, dated 2015).
Converted amounts (≈) assume the structure as drawn.

What was measured:
NB4 = experiment: MTT leukemia cell proliferation inhibition, NB4; assay type: cell-based; details: Homo sapiens, NB-4
Text: (§1) Leukemia cell lines: leukemia cell lines: K562/adr (drug-resistant, chronic myeloid leukemia, CML), NB4 (acute promyelocytic leukemia, AML), Kasumi-1 (acute myeloid leukemia M2 type, AML-M2), Jurkat (acute lymphoblastic leukemia, ALL), all of which are donated by Cancer Research Institute of Zhejiang University, China; and H9 (acute lymphoblastic leukemia, ALL), which is purchased from China Center for Type Culture Collection (CCTCC).
(§2) Reagents: The standard sample of oleanolic acid (OA) is purchased from Hua Kang Pharmaceutical Raw Material Factory, Shifang City, Sichuan, China; and the amidated oleanolic acid derivatives are prepared according to the present invention.
(§3) Obtaining 6000 well-growing leukemia cells and inoculating them into wells of a 96-well cell culture plate. The culture medium is the 1640 cell culture medium containing 10% fetal bovine serum. After adding the amidated oleanolic acid derivatives of different concentrations and mixing uniformly, placing the plate in a carbon dioxide cell incubator (5% CO2) at 37° C. and incubated for 72 hours. Then the relative number of viable cells is determined by the MTT method. In this experiment, the cell proliferation inhibition rate in control group (not treated with any compound) is set as 0%.

SK-OV-3 = experiment: MTT solid tumor cell proliferation inhibition, SK-OV-3; assay type: cell-based, human; details: Homo sapiens
Procedure: (§4) Human solid tumor cell lines: Hep-2 (laryngeal carcinoma), A549 (human lung cancer), CaES-17 (esophageal cancer cell), PC-3 (prostate cancer), CNE (nasopharyngeal carcinoma cell), and SK-OV-3 (ovarian cancer cell), all of which are purchased from China Center For Type Culture Collection; RKO (human colon adenocarcinoma cell), MGC 803 (human gastric cancer cell), MG63 (osteosarcoma) and U87 MG (malignant glioma cell), all of which are purchased from Fuxiang Bio-tech Co. Ltd., Shanghai, China; PANC-1 (pancreatic cancer), Hep G2 (human liver cancer cell), Becap37 (human breast cancer cell), and Hela (human cervical cancer cell), all of which are donated by Cancer Research Institute of Zhejiang University, China.
(§5) Obtaining 4000 well-growing human solid tumor cells and inoculating them into wells of a 96-well cell culture plate. The culture medium is DMEM High Glucose cell culture medium containing 10% fetal bovine serum. The plate is placed in a carbon dioxide cell incubator (5% CO2) at 37° C. for 24 hours for incubation. After being added with the amidated oleanolic acid derivatives of different concentrations and mixed uniformly, the plate is placed in a carbon dioxide cell incubator (5% CO2) at 37° C. for 72 hours for incubation. Then the relative number of the living cells is determined by the MTT method. In this experiment, the cell proliferation inhibition rate in control group (not treated with any compound) is set as 0%.

PANC-1 = experiment: MTT solid tumor cell proliferation inhibition, PANC-1; assay type: cell-based, human; details: Homo sapiens
Procedure: as §4, §5

RKO = experiment: MTT solid tumor cell proliferation inhibition, RKO; assay type: cell-based; details: Homo sapiens, 72 h
Procedure: as §4, §5

A549 = experiment: MTT solid tumor cell proliferation inhibition, A549; assay type: cell-based, human; details: Homo sapiens
Procedure: as §4, §5

Hela = experiment: MTT solid tumor cell proliferation inhibition, Hela; assay type: cell-based, human; details: Homo sapiens, Hela, 72 h
Procedure: as §4, §5

U87 MG = experiment: MTT solid tumor cell proliferation inhibition, U87 MG; assay type: cell-based, human; details: Homo sapiens, U-87 MG, U87 MG, 72 h
Procedure: as §4, §5

Kasumi-1 = experiment: MTT leukemia cell proliferation inhibition, Kasumi-1; assay type: cell-based; details: Homo sapiens
Text: as §1, §2, §3

Hep G2 = experiment: MTT solid tumor cell proliferation inhibition, Hep G2; assay type: cell-based; details: Homo sapiens, HepG2
Procedure: as §4, §5

Hep-2 = experiment: MTT solid tumor cell proliferation inhibition, Hep-2; assay type: cell-based, human; details: Homo sapiens
Procedure: as §4, §5

MGC803 = experiment: MTT solid tumor cell proliferation inhibition, MGC803; assay type: cell-based, human; details: Homo sapiens, MGC-803
Procedure: as §4, §5

Jurkat = experiment: MTT leukemia cell proliferation inhibition, Jurkat; assay type: cell-based; details: Homo sapiens, 72 h
Text: as §1, §2, §3

MG 63 = experiment: MTT solid tumor cell proliferation inhibition, MG 63; assay type: cell-based, human
Procedure: as §4, §5

CaES-17 = experiment: MTT solid tumor cell proliferation inhibition, CaES-17; assay type: cell-based, human; details: Homo sapiens, CaEs17
Procedure: as §4, §5

K562/adr = experiment: MTT leukemia cell proliferation inhibition, K562/adr; assay type: cell-based; details: Homo sapiens, 72 h
Text: as §1, §2, §3

Becap37 = experiment: MTT solid tumor cell proliferation inhibition, Becap37; assay type: cell-based; details: Homo sapiens
Procedure: as §4, §5

CNE = experiment: MTT solid tumor cell proliferation inhibition, CNE; assay type: cell-based, human; details: Homo sapiens, CNE, 72 h
Procedure: as §4, §5

RPMI8226 = experiment: MTT multiple myeloma cell proliferation inhibition, RPMI8226; assay type: cell-based; details: Homo sapiens, RPMI-8226
Procedure: Multiple myeloma cell lines: RPMI8226 (multiple myeloma), purchased from Fuxiang Bio-tech Co. Ltd., Shanghai, China.
as §3

H9 = experiment: MTT leukemia cell proliferation inhibition, H9; assay type: cell-based, human; details: Homo sapiens
Text: as §1, §2, §3

PC-3 = experiment: MTT solid tumor cell proliferation inhibition, PC-3; assay type: cell-based, human; details: Homo sapiens
Procedure: as §4, §5

[1] = 16 μg/mL compound, read-out: IR (inhibition rate)

- IC50 (NB4; NB4, 72 h, MTT): 8.22 µg/mL (≈ 15.3 µM)
- IC50 (SK-OV-3; SK-OV-3, 72 h, MTT): 14.6 µg/mL (≈ 27.2 µM)
- IC50 (PANC-1; PANC-1, 72 h, MTT): > 16 µg/mL
- IC50 (RKO; MTT): > 16 µg/mL
- IC50 (A549; A549, 72 h, MTT): > 16 µg/mL
- IC50 (Hela; MTT): 14.2 µg/mL (≈ 26.3 µM)
- IC50 (U87 MG; MTT): > 16 µg/mL
- IC50 (Kasumi-1; Kasumi-1, 72 h, MTT): > 16 µg/mL
- IC50 (Hep G2; Hep G2, 72 h, MTT): > 16 µg/mL
- IC50 (Hep-2; Hep-2, 72 h, MTT): > 16 µg/mL
- IC50 (MGC803; MGC803, 72 h, MTT): 16 µg/mL (≈ 29.7 µM)
- IC50 (Jurkat; MTT): > 16 µg/mL
- IC50 (MG 63; Homo sapiens, MG 63, 72 h, MTT): > 16 µg/mL
- IC50 (CaES-17; CaES-17, 72 h, MTT): > 16 µg/mL
- IC50 (K562/adr; MTT): 7.83 µg/mL (≈ 14.6 µM)
- IC50 (Becap37; Becap37, 72 h, MTT): > 16 µg/mL
- IC50 (CNE; MTT): > 16 µg/mL
- IC50 (RPMI8226; RPMI8226, 72 h, MTT): 6.44 µg/mL (≈ 12 µM)
- IC50 (H9; H9, 72 h, MTT): 12.5 µg/mL (≈ 23.2 µM)
- IC50 (PC-3; PC-3, 72 h, MTT): 17.4 µg/mL (≈ 32.4 µM)
Compound: CC1(C)CC[C@]2(NC(=O)c3cccs3)CC[C@]3(C)C(=CC[C@@H]4[C@@]5(C)CC[C@H](O)C(C)(C)[C@@H]5CC[C@]43C)[C@@H]2C1 [BS-OA-098]
- inhibition at 16 µg/mL (NB4; NB4, 16 μg/mL compound, 72 h, read-out: IR (inhibition rate)): 96.3%
- inhibition at 16 µg/mL (SK-OV-3; SK-OV-3, 16 μg/mL compound, 72 h, read-out: IR (inhibition rate)): 53.5%
- inhibition at 16 µg/mL (PANC-1; PANC-1, 16 μg/mL compound, 72 h, read-out: IR (inhibition rate)): 34.7%
- inhibition at 16 µg/mL (RKO; [1]): 27%
- inhibition at 16 µg/mL (A549; A549, 16 μg/mL compound, 72 h, read-out: IR (inhibition rate)): 24.3%
- inhibition at 16 µg/mL (Hela; [1]): 63.1%
- inhibition at 16 µg/mL (U87 MG; [1]): 29.8%
- inhibition at 16 µg/mL (Kasumi-1; Kasumi-1, 16 μg/mL compound, 72 h, read-out: IR (inhibition rate)): 35.7%
- inhibition at 16 µg/mL (Hep G2; Hep G2, 16 μg/mL compound, 72 h, read-out: IR (inhibition rate)): 28.4%
- inhibition at 16 µg/mL (Hep-2; Hep-2, 16 μg/mL compound, 72 h, read-out: IR (inhibition rate)): 19.6%
- inhibition at 16 µg/mL (MGC803; MGC803, 16 μg/mL compound, 72 h, read-out: IR (inhibition rate)): 46.3%
- inhibition at 16 µg/mL (Jurkat; [1]): 20.1%
- IR (inhibition rate) (MG 63; MG 63, 16 μg/mL compound, 72 h): 20.9%
- inhibition at 16 µg/mL (CaES-17; CaES-17, 16 μg/mL compound, 72 h, read-out: IR (inhibition rate)): 39.9%
- inhibition at 16 µg/mL (K562/adr; [1]): 81.9%
- inhibition at 16 µg/mL (Becap37; Becap37, 16 μg/mL compound, 72 h, read-out: IR (inhibition rate)): 28.6%
- inhibition at 16 µg/mL (CNE; [1]): 35.8%
- inhibition at 16 µg/mL (RPMI8226; RPMI8226, 16 μg/mL compound, 72 h, read-out: IR (inhibition rate)): 97.6%
- inhibition at 16 µg/mL (H9; H9, 16 μg/mL compound, 72 h, read-out: IR (inhibition rate)): 62.4%
- inhibition at 16 µg/mL (PC-3; PC-3, 16 μg/mL compound, 72 h, read-out: IR (inhibition rate)): 45.1%
